This is an account of results in US8623601B2, “Methods of diagnosing cancer” (Cognosci, Inc., priority 2011, dated 2014).

One data set deals with CLL cells. Nature of the data set: CLL cell cytotoxicity, MTS assay. The format is cell-based, human. The following applies: 72 hours. The procedure:
(§1) For cytotoxicity assays, 3×10^6 CLL cells/well were cultured in 24 well tissue culture plates in 1.5 mL of Hybridoma SFM™ (Gibco, Long Island, N.Y.) as described by Levesque et al. (Levesque et al. 2001) (Levesque et al. 2003) All cultures were incubated at 37° C., 5% CO2 in air. […] (Levesque et al. 2003)
(§2) Based on the induction of apoptosis in CLL cells, we tested several analogs of COG449 for cytotoxicity against CLL cells freshly isolated from a number of patients and against normal B-cells from healthy volunteers (Table 4). Cells were cultured with the agents for 72 hours, and the viable cells were assessed for cytotoxicity using the MTS assay. […] We also analyzed the effect of shRNA-mediated knockdown of SET on the growth of B-cell lymphoma cell lines.
A general note: Tetrazolium dyes change colour on reduction, which living cells bring about.

The next data set concerns normal B-cells. Nature of the data set: Cytotoxicity to normal B-cells from healthy volunteers, MTS assay. The data set is classed as cell-based, human. Particulars: normal B-cells from healthy volunteers, 72 hours, read-out: Normal ED50.
Excerpt: (§3) CLL was diagnosed according to the NCl Working Group criteria (Hallek et al. 2008). Healthy volunteers and CLL patients from the Duke University and Durham Va. Medical Centers were enrolled in IRB-approved research protocols to collect clinical data and blood. Subjects gave signed informed consent prior to phlebotomy, in accordance with the Declaration of Helsinki. Blood was collected from participants into heparin-tubes, and CLL cells were purified as noted before (Weinberg et al. 2007). Briefly, CLL cells were isolated using the RosetteSep® B cell enrichment cocktail (catalog #15024/15064; Stem Cell Technologies, Vancouver, BC, Canada) according to the manufacturer's directions. This method yielded CLL cell purity of greater than 95% CD5+CD19+ B-cells as determined by flow cytometry. Normal B-lymphocytes were isolated using the EasySep® B-cell enrichment cocktail (catalog #15024/15064; Stem Cell Technologies, Vancouver, BC, Canada) according to the manufacturer's directions, with a purity of >94% CD 19+ lymphocytes.
as §1, §2

The next data set concerns Ramos cells. Put plainly: Growth inhibition / cytotoxicity in Ramos NHL cells. The format is cell-based, human. The procedure:
FIG. 6: SET antagonism is cytotoxic to CLL cells and inhibits NHL cell growth in vitro. (A) Dose response curves for COG445 treatment of CLL cells from 7 patients or normal B-cells from 5 volunteers. (B) Dose response curves for COG449 treatment on CLL cells from 7 patients. (C) Raji NHL cells were transduced with SET shRNA or control lentivirus and knockdown was assessed by Western blotting from two samples of each.
FIG. 7: Cytotoxicity of COG449 can be modulated by a PP2A inhibitor in Ramos cells. Ramos cells were pretreated for 5 minutes with or without 1 nM OA before treatment with 1 μM COG449. After 24 hours, cytotoxicity was assessed using the […] assay reagent to detect viable cells.
as §2

Another data set concerns SET (α and β isoforms). The following applies: 10 μM biotin-labeled peptide, pull-down on beads, Western blot. In general terms: Immunoblotting shows a protein as a band on a membrane.
The nature of data set [1]: Cytotoxicity to normal B-cells from healthy volunteers, MTS assay. The data set is classed as cell-based, human. Particulars: human.
Excerpt: as §3, §1, §2

The mark [2] stands for this setting: CLL cells freshly isolated from patients, read-out: CLL ED50.
[3] abbreviates: CLL cells from 7 patients, read-out: ED50 of cytotoxicity to CLL cells.

Read-outs that look alike come from different tables or passages of the source. *1 amine or outer side, *2 acyl side, *3 side chain or, on linkers, in order; H or OH if unused. Bridges are numbered along the chain shown (N, C = ends). Roman numbers before positions name the chains, in order. [ ]: non-standard residue; d: D form. BMOE = O=C1CC([*:1])C(=O)N1CCN1C(=O)CC([*:2])C1=O; Aib = CC(C)(N)C(=O)O A value given as a limit tells only on which side of the number the result lay.

Sequence of SET (α and β isoforms) (Q01105 38-290 limits assumed): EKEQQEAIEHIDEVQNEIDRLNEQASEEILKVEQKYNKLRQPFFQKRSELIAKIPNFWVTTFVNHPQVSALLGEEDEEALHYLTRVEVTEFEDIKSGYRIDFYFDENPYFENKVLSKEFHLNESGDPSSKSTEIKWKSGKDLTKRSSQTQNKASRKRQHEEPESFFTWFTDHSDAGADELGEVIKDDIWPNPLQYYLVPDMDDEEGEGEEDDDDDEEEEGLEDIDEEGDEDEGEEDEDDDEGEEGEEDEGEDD
Method for SET (α and β isoforms): Complexes bound to Neutravidin-Agarose (NA) beads were then detected by Western blotting. Lane 1 contains 20 μg of cell lysate as a loading control. […] Lysates were incubated with biotin reagents for 1 hr before addition of NA beads and then incubated for an additional hour. After rigorous washing, the beads were boiled in SDS PAGE buffer, separated by PAGE and blotted to nitrocellulose.
CLL cells were lysed in NP40 buffer (50 mM Tris, 0.2% NP40, 150 mM NaCl) by a single freeze thaw cycle. Lysate protein concentration was adjusted to 5 mg/mL. Streptavidin agarose beads (1 mL) were washed with 10 mL of NP40 buffer, and 0.5 mL of beads was added to 1 mL of extract. ABeads were then collected by filtration through a disposable mini-column (Bio-Rad), and the flow-through extract was collected for analysis. Following washing with 100 mL of chilled NP40 buffer, the beads were removed from the column, collected by centrifugation, and 75 μL of 4× Laemmli buffer was added. Beads were vortexed and heated to 90° C. for 10 min to ensure that all proteins were released from the beads. Proteins were separated by SDS PAGE and Western blotting was used to determine if the COG133 and COG112 peptides bound to both isoforms of SET from a CLL patient sample.

For the substance LLRKRLKRLHSALRVRL [COG056], the results for the EC50 with CLL cells (setting [2]) and in the data set on normal B-cells were 12.9 ± 4.6 µM and greater than 20 µM, respectively.

For oakadaic acid [reference compound], the “cytotoxicity in Ramos cells” value in the data set with Ramos cells (1 nM OA alone, 24 hours) is listed as “not cytotoxic”.

Turning to “AS(Aib)LRKL(Aib)KRLL (Ac-AS[Aib]LRKL[Aib]KRLL-NH2) [COG1410, Aib = aminoisobutyric acid]”, the EC50 is 5.7 ± 3 µM in the data set on CLL cells (setting [2]) and greater than 20 µM in the data set with normal B-cells.

With “RQIKIWFQNRRMKWKK-C-LRVRLASHLRKLRKRLL [COG112]”, the EC50 was 1.4 ± 0.7 µM in the data set on CLL cells (setting [2]) and greater than 20 µM in the data set on normal B-cells. In addition, the “binding to SET isoforms in CLL cell lysate” value in the data set on SET (α and β isoforms) was “binds to both SET isoforms”.

Consider “I: Ac-RQIKIWFQNRRMKWKKCLRVRLASHLRKLRKRLL-NH2 / II: Ac-RQIKIWFQNRRMKWKKCLRVRLASHLRKLRKRLL-NH2 (linker I:17-II:17 via BMOE) [COG449]”, for which, in the data set with CLL cells (setting [3]), the EC50 was 0.103 µM. Also, the “cytotoxicity in Ramos cells” value in the data set on Ramos cells (1 μM COG449, 24 hours) is reported as “robust cytotoxic effect”. Also, the “cytotoxicity in Ramos cells with PP2A inhibitor” value in the data set on Ramos cells (1 μM COG449 after pretreatment with 1 nM OA, 24 hours) is on record as “partially counteracted by treatment with OA”.

In the case of “I: Ac-RQIKIWFQNRRMKWKKCLRVRLASHLRKLRKRLL-NH2 / II: Ac-RQIKIWFQNRRMKWKKCLRVRLASHLRKLRKRLL-NH2 (disulfide I:17-II:17 (inferred)) [COG445]”, the EC50 with CLL cells (setting [3]) was 0.11 µM; in the data set on normal B-cells, greater than 10 µM. Besides, the EC50 at 72 h in data set [1] was no less than 10 µM.

Turning to LRVRLASHLRKLRKRLL [COG133], the EC50 in the data set with CLL cells (setting [2]) was 4.4 ± 1.5 µM; with normal B-cells, greater than 20 µM. The “binding to SET isoforms in CLL cell lysate” value in the data set on SET (α and β isoforms) is listed as “binds to both SET isoforms”.
